Source: the supplement of paper PMC10307832

Columns and labels:
Assay in all cases: relative viability (nuclei count vs DMSO), 5 days (fraction); higher = more cells survive
Palbociclib + Tozasertib = compound: CC(=O)c1c(C)c2cnc(Nc3ccc(N4CCNCC4)cn3)nc2n(C2CCCC2)c1=O [Palbociclib] + Cc1cc(Nc2cc(N3CCN(C)CC3)nc(Sc3ccc(NC(=O)C4CC4)cc3)n2)n[nH]1 [Tozasertib] (partner 0.1 µM)
Procedure, shortened: (§1)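 Relative viability divides the nuclei count in treated wells by that in vehicle wells. Lung cancer cell lines were seeded in 1536-well plates, dosed by pin tool the next day, and fixed and stained after 5 days in one step with final 0.05% Triton X-100, 1% formaldehyde and 1 ug/ml Hoechst. Dosing was a single drug or a fixed anchor-drug dose plus five library-drug doses (not always all listed) in √10 steps, and values are medians of duplicate plates imaged at 4×.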

Palbociclib + Dasatinib = compound: CC(=O)c1c(C)c2cnc(Nc3ccc(N4CCNCC4)cn3)nc2n(C2CCCC2)c1=O [Palbociclib] + Cc1nc(Nc2ncc(C(=O)Nc3c(C)cccc3Cl)s2)cc(N2CCN(CCO)CC2)n1 [Dasatinib] (partner 0.075 µM)
Procedure, shortened: as §1

Palbociclib + Crizotinib = compound: CC(=O)c1c(C)c2cnc(Nc3ccc(N4CCNCC4)cn3)nc2n(C2CCCC2)c1=O [Palbociclib] + C[C@@H](Oc1cc(-c2cnn(C3CCNCC3)c2)cnc1N)c1c(Cl)ccc(F)c1Cl [Crizotinib] (partner 1 µM)
Procedure, shortened: as §1

Palbociclib + Linsitinib = compound: CC(=O)c1c(C)c2cnc(Nc3ccc(N4CCNCC4)cn3)nc2n(C2CCCC2)c1=O [Palbociclib] + C[C@]1(O)C[C@@H](c2nc(-c3ccc4ccc(-c5ccccc5)nc4c3)c3c(N)nccn32)C1 [Linsitinib] (partner 1 µM)
Procedure, shortened: as §1

| Cell Line | relative viability (Palbociclib + Tozasertib; first compound 0.01 µM) | relative viability (Palbociclib + Tozasertib; first compound 0.03162 µM) | relative viability (Palbociclib + Tozasertib; first compound 0.1 µM) | relative viability (Palbociclib + Tozasertib; first compound 0.3162 µM) | relative viability (Palbociclib + Tozasertib; first compound 1 µM) | relative viability (Palbociclib + Dasatinib; first compound 0.01 µM) | relative viability (Palbociclib + Dasatinib; first compound 0.03162 µM) | relative viability (Palbociclib + Dasatinib; first compound 0.1 µM) | relative viability (Palbociclib + Dasatinib; first compound 0.3162 µM) | relative viability (Palbociclib + Dasatinib; first compound 1 µM) | relative viability (Palbociclib + Crizotinib; first compound 0.01 µM) | relative viability (Palbociclib + Crizotinib; first compound 0.03162 µM) | relative viability (Palbociclib + Crizotinib; first compound 0.1 µM) | relative viability (Palbociclib + Crizotinib; first compound 0.3162 µM) | relative viability (Palbociclib + Crizotinib; first compound 1 µM) | relative viability (Palbociclib + Linsitinib; first compound 0.01 µM) | relative viability (Palbociclib + Linsitinib; first compound 0.03162 µM) | relative viability (Palbociclib + Linsitinib; first compound 0.1 µM) | relative viability (Palbociclib + Linsitinib; first compound 0.3162 µM) | relative viability (Palbociclib + Linsitinib; first compound 1 µM) |
| --- | --- | --- | --- | --- | --- | --- | --- | --- | --- | --- | --- | --- | --- | --- | --- | --- | --- | --- | --- | --- |
| NCI-H522 | 0.604 | 0.517 | 0.573 | 0.469 | 0.539 | 0.896 | 0.658 | 0.809 | 0.922 | 0.914 | – | – | – | – | – | – | – | – | – | – |
| NCI-H1944 | 0.254 | 0.242 | 0.293 | 0.245 | 0.229 | 0.211 | 0.162 | 0.193 | 0.19 | 0.147 | 1.01 | 0.969 | 0.904 | 0.98 | 0.851 | 1.15 | 0.993 | 1.06 | 1.08 | 0.836 |
| NCI-H1793 | 0.358 | – | 0.318 | 0.339 | 0.276 | 0.409 | – | 0.359 | 0.342 | 0.221 | – | – | – | – | – | 0.722 | 0.681 | 0.647 | 0.583 | 0.518 |
| SK-MES-1 | 0.858 | 0.76 | 0.595 | 0.502 | 0.29 | 0.346 | 0.358 | 0.165 | 0.129 | 0.188 | 0.943 | 0.952 | 0.724 | 0.714 | 0.45 | 1.01 | 1 | 0.791 | 0.772 | 0.609 |
| NCI-H1650 | 0.48 | 0.317 | 0.44 | 0.337 | 0.338 | 0.29 | 0.287 | 0.275 | 0.275 | 0.208 | 0.957 | 0.724 | 0.776 | 0.684 | 0.548 | – | – | – | – | – |
| LCLC-103H | 0.483 | 0.385 | 0.559 | 0.423 | 0.357 | 0.44 | 0.331 | 0.452 | 0.367 | 0.307 | 1.04 | 1.04 | 0.846 | 0.995 | 0.804 | 1.04 | 1.15 | 0.918 | 1 | 0.826 |
| LU99A | 0.314 | 0.268 | 0.254 | 0.308 | 0.25 | 0.506 | 0.428 | 0.353 | 0.344 | 0.379 | 0.636 | 0.559 | 0.496 | 0.428 | 0.389 | 0.587 | 0.46 | 0.454 | 0.355 | 0.327 |
| 201T | 0.984 | 0.906 | 0.914 | 0.797 | 0.614 | 0.54 | 0.494 | 0.579 | 0.388 | 0.324 | 1.01 | 0.992 | 0.922 | 0.93 | 0.806 | 1.01 | 0.97 | 0.901 | 0.938 | 0.716 |
| NCI-H1563 | – | – | – | – | – | 0.456 | 0.44 | 0.484 | 0.471 | 0.429 | 0.852 | 0.832 | 0.813 | 0.759 | 0.67 | 1.19 | 1.25 | 1.15 | 1 | 0.887 |
